The values below are quoted from earlier work in patent US20080254143A1, “COMPOSITION FOR IMPROVING IMMUNE SYSTEM HEALTH” (priority 2007, published 2008).

In series [1] the test system is common cold. Conditions: administered or recruited within 24 hrs of the onset of symptoms.
For a further series, the system named is TNF-α. Conditions: activated macrophages (LPS/IFN-gamma-activated RAW 264.7).
For another series, the system named is rhinovirus. Conditions: prevents formation of viral capsid proteins.
Series [2] deals with common cold. Conditions: daily supplementation, amounts greater than 100 mg.

Regarding `O=S(=O)([O-])[O-].[Zn+2]` [Zinc sulphate], the “duration and severity of symptoms of a common cold” value (from here on “duration and severity”) in the series on common cold [1] is “reduce the duration and overall severity”.
As to Anthocyanins, in the series with TNF-α, the TNF-α production result is “induce TNF-α production”.
On to `[Zn]` [zinc, Zinc], for which the “duration and severity” value in the series with common cold [1] was “reducing the duration and severity”. Moreover, the “in vitro replication of the rhinovirus” value in the series on rhinovirus is reported as “inhibits in vitro replication”.
In the case of `O=C1O[C@H]([C@@H](O)CO)C(O)=C1O` [ascorbic acid, L-ascorbic acid], the “incidence, severity and integrated morbidity of the common cold” value with common cold [2] was “lowers the incidence, severity and integrated morbidity”.
With `CC(=O)[O-].CC(=O)[O-].[Zn+2]` [Zinc acetate], the “duration and severity” value with common cold [1] is “reduce the duration and overall severity”.
